Experiments:
Experiment in all cases: relative viability (nuclei count vs DMSO), 5 days (fraction); higher = more cells survive
[1] = system: COR-L 105
Summary of the method: (§1)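 Each reported value is a median over duplicate plates. It expresses relative viability: treated-well nuclei count divided by vehicle-well nuclei count. Lung cancer cell lines in 1536-well plates were dosed by pin tool a day after seeding, alone with one drug or with a fixed anchor-drug dose plus five library-drug doses (not always all listed) in √10 steps, and nuclei were counted after 5 days.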

[2] = system: HCC-78
Summary of the method: as §1

[3] = system: LCLC-103H
Summary of the method: as §1

[4] = system: NCI-H2085
Summary of the method: as §1

[5] = system: HCC-15
Summary of the method: as §1

[6] = system: EPLC-272H
Summary of the method: as §1

[7] = system: NCI-H358
Summary of the method: as §1

[8] = system: COR-L23
Summary of the method: as §1

[9] = system: NCI-H1944
Summary of the method: as §1

[10] = system: NCI-H2405
Summary of the method: as §1

[11] = system: NCI-H1437
Summary of the method: as §1

[12] = system: HARA
Summary of the method: as §1

`O=c1[nH]c2ccccc2n1C1CCN(CCCC(c2ccc(F)cc2)c2ccc(F)cc2)CC1` [Pimozide] + CC(=O)c1c(C)c2cnc(Nc3ccc(N4CCNCC4)cn3)nc2n(C2CCCC2)c1=O [Palbociclib] (partner 0.5 µM) showed a relative viability ([1]; first compound 0.08 µM) of 0.378, a relative viability ([1]; first compound 0.253 µM) of 0.399 and a relative viability ([1]; first compound 0.8 µM) of 0.409. It also gave a relative viability ([1]; first compound 2.53 µM) of 0.426, a relative viability ([1]; first compound 8 µM) of 0.416 and a relative viability ([2]; first compound 0.08 µM) of 0.514. For the same compound, the relative viability ([2]; first compound 0.8 µM) was 0.431, the relative viability ([2]; first compound 2.53 µM) was 0.421 and the relative viability ([2]; first compound 8 µM) was 0.524. The relative viability ([3]; first compound 0.08 µM) was 0.451, the relative viability ([3]; first compound 0.253 µM) was 0.46 and the relative viability ([3]; first compound 0.8 µM) was 0.428. For the same compound, the relative viability ([3]; first compound 2.53 µM) was 0.444, the relative viability ([3]; first compound 8 µM) was 0.489 and the relative viability ([4]; first compound 0.08 µM) was 0.452. For the same compound, the relative viability ([4]; first compound 0.253 µM) was 0.483, the relative viability ([4]; first compound 0.8 µM) was 0.438 and the relative viability ([4]; first compound 2.53 µM) was 0.479. The relative viability ([4]; first compound 8 µM) was 0.422, the relative viability ([5]; first compound 0.08 µM) was 0.747 and the relative viability ([5]; first compound 0.253 µM) was 0.641. The relative viability ([5]; first compound 0.8 µM) was 0.673, the relative viability ([5]; first compound 2.53 µM) was 0.652 and the relative viability ([5]; first compound 8 µM) was 0.653. The relative viability ([6]; first compound 0.08 µM) was 0.309, the relative viability ([6]; first compound 0.253 µM) was 0.308 and the relative viability ([6]; first compound 0.8 µM) was 0.328. It also gave a relative viability ([6]; first compound 2.53 µM) of 0.329, a relative viability ([6]; first compound 8 µM) of 0.333 and a relative viability ([7]; first compound 0.08 µM) of 0.141. The relative viability ([7]; first compound 0.253 µM) was 0.132, the relative viability ([7]; first compound 0.8 µM) was 0.127 and the relative viability ([7]; first compound 2.53 µM) was 0.147. For the same compound, the relative viability ([7]; first compound 8 µM) was 0.143, the relative viability ([8]; first compound 0.08 µM) was 0.291 and the relative viability ([8]; first compound 0.253 µM) was 0.346. For the same compound, the relative viability ([8]; first compound 0.8 µM) was 0.293, the relative viability ([8]; first compound 2.53 µM) was 0.267 and the relative viability ([8]; first compound 8 µM) was 0.307. It also gave a relative viability ([9]; first compound 0.08 µM) of 0.333, a relative viability ([9]; first compound 2.53 µM) of 0.253 and a relative viability ([9]; first compound 8 µM) of 0.334. The relative viability ([10]; first compound 0.08 µM) was 0.522, the relative viability ([10]; first compound 0.253 µM) was 0.516 and the relative viability ([10]; first compound 0.8 µM) was 0.478. It also gave a relative viability ([10]; first compound 2.53 µM) of 0.456, a relative viability ([10]; first compound 8 µM) of 0.33 and a relative viability ([11]; first compound 0.08 µM) of 0.338. For the same compound, the relative viability ([11]; first compound 0.253 µM) was 0.328, the relative viability ([11]; first compound 0.8 µM) was 0.25 and the relative viability ([11]; first compound 2.53 µM) was 0.256. For the same compound, the relative viability ([11]; first compound 8 µM) was 0.265, the relative viability ([12]; first compound 0.08 µM) was 0.278 and the relative viability ([12]; first compound 0.253 µM) was 0.263. The relative viability ([12]; first compound 0.8 µM) was 0.22.
